Source: patent US10927123B2, “Modulators of the beta-3 adrenergic receptor useful for the treatment or prevention of disorders related thereto” (Arena Pharmaceuticals, Inc., priority 2016, dated 2021)

Target: Beta-3 Adrenergic Receptor (Homo sapiens (Human), UniProt P13945)
Assay: HTRF cAMP antagonist assay (IC50 determination)
Assay type: cell-based
Details: CHO-K1 cells stably expressing recombinant receptor; antagonism of isoproterenol at EC90; cAMP readout
In short: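 CHO-K1 cells stably expressing receptor, 1500 cells/well, preincubated briefly with 10-point 5-fold compound series (top final typically 10 or 100 μM) in PBS with 1 mM IBMX, then challenged with isoproterenol at EC90 for 1 h at room temperature. cAMP read by HTRF against on-plate standard curve; IC50 from dose-response.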

Beta-3 Adrenergic Receptor, sequence (P13945 whole entry, species assumed): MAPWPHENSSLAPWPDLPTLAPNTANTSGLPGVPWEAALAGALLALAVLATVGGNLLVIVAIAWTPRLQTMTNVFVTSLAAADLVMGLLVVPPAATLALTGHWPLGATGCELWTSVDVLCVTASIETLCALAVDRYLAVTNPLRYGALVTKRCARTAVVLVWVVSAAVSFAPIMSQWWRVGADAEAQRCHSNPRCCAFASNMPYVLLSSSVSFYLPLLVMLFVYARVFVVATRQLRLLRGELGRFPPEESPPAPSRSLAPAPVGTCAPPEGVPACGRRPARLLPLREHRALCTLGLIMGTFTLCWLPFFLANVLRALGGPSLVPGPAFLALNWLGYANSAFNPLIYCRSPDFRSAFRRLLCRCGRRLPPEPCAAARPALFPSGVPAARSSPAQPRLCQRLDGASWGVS

| Compound | IC50 |
| --- | --- |
| NCCc1ccc(-c2cccc(S(=O)(=O)N3CCC4(CC3)C[C@@H](NC[C@H](O)COc3cccc(S(=O)(=O)C(F)(F)CO)c3)CO4)c2)cc1 [Compound 213, (S)-1-((R)-8-(4′-(2-aminoethyl)biphenyl-3-ylsulfonyl)-1-oxa-8-azaspiro[4.5]decan-3-ylamino)-3-(3-(1,1-difluoro-2-hydroxyethylsulfonyl)phenoxy)propan-2-ol] | 18.6 nM |
| CCOc1ccc(-c2ccc(CCN)cc2)cc1S(=O)(=O)N1CCC2(CC1)C[C@H](NC[C@H](O)COc1cccc(S(=O)(=O)C3(CO)CC3)c1)CO2 [Compound 214, (S)-1-((S)-8-(4′-(2-aminoethyl)-4-ethoxybiphenyl-3-ylsulfonyl)-1-oxa-8-azaspiro[4.5]decan-3-ylamino)-3-(3-(1-(hydroxymethyl)cyclopropylsulfonyl)phenoxy)propan-2-ol] | 36.7 nM |
| COc1ccc(S(=O)(=O)N2CCC3(CC2)C[C@H](NC[C@H](O)COc2cccc(S(=O)(=O)C4(CO)CC4)c2)CO3)cc1-c1ccc(CCN)cc1 [Compound 215, (S)-1-((S)-8-(4′-(2-aminoethyl)-6-methoxybiphenyl-3-ylsulfonyl)-1-oxa-8-azaspiro[4.5]decan-3-ylamino)-3-(3-(1-(hydroxymethyl)cyclopropylsulfonyl)phenoxy)propan-2-ol] | 38.4 nM |
| NCc1ccc(-c2cc(S(=O)(=O)N3CCC4(CC3)C[C@@H](NC[C@H](O)COc3cccc(S(=O)(=O)C5(CO)CC5)c3)CO4)ccc2F)cc1 [Compound 216, (S)-1-((R)-8-(4′-(aminomethyl)-6-fluorobiphenyl-3-ylsulfonyl)-1-oxa-8-azaspiro[4.5]decan-3-ylamino)-3-(3-(1-(hydroxymethyl)cyclopropylsulfonyl)phenoxy)propan-2-ol] | 26.4 nM |
| NC1(c2ccc(-c3cc(S(=O)(=O)N4CCC5(CC4)C[C@@H](NC[C@H](O)COc4cccc(S(=O)(=O)C6(CO)CC6)c4)CO5)ccc3F)cc2)CC1 [Compound 217, (S)-1-((R)-8-(4′-(1-aminocyclopropyl)-6-fluorobiphenyl-3-ylsulfonyl)-1-oxa-8-azaspiro[4.5]decan-3-ylamino)-3-(3-(1-(hydroxymethyl)cyclopropylsulfonyl)phenoxy)propan-2-ol] | 28.4 nM |
| NCc1ccc(-c2cc(S(=O)(=O)N3CCC4(CC3)C[C@H](NC[C@H](O)COc3cccc(S(=O)(=O)C5(CO)CC5)c3)CO4)ccc2F)cc1 [Compound 218, (S)-1-((S)-8-(4′-(aminomethyl)-6-fluorobiphenyl-3-ylsulfonyl)-1-oxa-8-azaspiro[4.5]decan-3-ylamino)-3-(3-(1-(hydroxymethyl)cyclopropylsulfonyl)phenoxy)propan-2-ol] | 29.3 nM |
| NC1(c2ccc(-c3cc(S(=O)(=O)N4CCC5(CC4)C[C@H](NC[C@H](O)COc4cccc(S(=O)(=O)C6(CO)CC6)c4)CO5)ccc3F)cc2)CC1 [Compound 219, (S)-1-((S)-8-(4′-(1-aminocyclopropyl)-6-fluorobiphenyl-3-ylsulfonyl)-1-oxa-8-azaspiro[4.5]decan-3-ylamino)-3-(3-(1-(hydroxymethyl)cyclopropylsulfonyl)phenoxy)propan-2-ol] | 21.6 nM |
| CCOc1ccc(-c2ccc(CN)c(F)c2)cc1S(=O)(=O)N1CCC2(CC1)C[C@H](NC[C@H](O)COc1cccc(S(=O)(=O)C3(CO)CC3)c1)CO2 [Compound 220, (S)-1-((S)-8-(4′-(aminomethyl)-4-ethoxy-3′-fluorobiphenyl-3-ylsulfonyl)-1-oxa-8-azaspiro[4.5]decan-3-ylamino)-3-(3-(1-(hydroxymethyl)cyclopropylsulfonyl)phenoxy)propan-2-ol] | 27.5 nM |
| O=S(=O)(c1cnc(Cl)c(Br)c1)N1CCC2(CC1)C[C@@H](NC[C@H](O)COc1cccc(S(=O)(=O)C3(CO)CC3)c1)CO2 [Compound 221, (S)-1-((R)-8-(5-bromo-6-chloropyridin-3-ylsulfonyl)-1-oxa-8-azaspiro[4.5]decan-3-ylamino)-3-(3-(1-(hydroxymethyl)cyclopropylsulfonyl)phenoxy)propan-2-ol] | 20.6 nM |
| CN1CCN(C)c2ncc(S(=O)(=O)N3CCC4(CC3)C[C@@H](NC[C@H](O)COc3cccc(S(=O)(=O)C5(CO)CC5)c3)CO4)cc21 [Compound 222, (S)-1-((R)-8-(1,4-dimethyl-1,2,3,4-tetrahydropyrido[3,2-b]pyrazin-7-ylsulfonyl)-1-oxa-8-azaspiro[4.5]decan-3-ylamino)-3-(3-(1-(hydroxymethyl)cyclopropylsulfonyl)phenoxy)propan-2-ol] | 47.6 nM |
| COc1ccc(S(=O)(=O)N2CCC3(CC2)C[C@H](NC[C@H](O)COc2cccc(S(=O)(=O)C(C)(C)CO)c2)CO3)cc1-c1ccc(CN)cc1 [Compound 223, 2-(3-((S)-3-((S)-8-(4′-(aminomethyl)-6-methoxybiphenyl-3-ylsulfonyl)-1-oxa-8-azaspiro[4.5]decan-3-ylamino)-2-hydroxypropoxy)phenylsulfonyl)-2-methylpropan-1-ol] | 83.6 nM |
| COc1ccc(S(=O)(=O)N2CCC3(CC2)C[C@H](NC[C@H](O)COc2cccc(S(=O)(=O)C(C)(C)CO)c2)CO3)cc1-c1ccc(C2(N)CC2)cc1 [Compound 224, 2-(3-((S)-3-((S)-8-(4′-(1-aminocyclopropyl)-6-methoxybiphenyl-3-ylsulfonyl)-1-oxa-8-azaspiro[4.5]decan-3-ylamino)-2-hydroxypropoxy)phenylsulfonyl)-2-methylpropan-1-ol] | 73.2 nM |
| COc1ccc(S(=O)(=O)N2CCC3(CC2)C[C@H](NC[C@H](O)COc2cccc(S(=O)(=O)C4(CO)CC4)c2)CO3)cc1-c1ccc(C2(N)CC2)cc1 [Compound 225, (S)-1-((S)-8-(4′-(1-aminocyclopropyl)-6-methoxybiphenyl-3-ylsulfonyl)-1-oxa-8-azaspiro[4.5]decan-3-ylamino)-3-(3-(1-(hydroxymethyl)cyclopropylsulfonyl)phenoxy)propan-2-ol] | 33.1 nM |
| CCOc1ccc(-c2ccc(CN)cc2)cc1S(=O)(=O)N1CCC2(CC1)C[C@H](NC[C@H](O)COc1cccc(S(=O)(=O)CC)c1)CO2 [Compound 226, (S)-1-((S)-8-(4′-(aminomethyl)-4-ethoxybiphenyl-3-ylsulfonyl)-1-oxa-8-azaspiro[4.5]decan-3-ylamino)-3-(3-(ethylsulfonyl)phenoxy)propan-2-ol] | 12.5 nM |
| COc1ccc(S(=O)(=O)N2CCC3(CC2)C[C@H](NC[C@H](O)COc2cccc(S(=O)(=O)C4CC4)c2)CO3)cc1-c1ccc(CN)cc1 [Compound 227, (S)-1-((S)-8-(4′-(aminomethyl)-6-methoxybiphenyl-3-ylsulfonyl)-1-oxa-8-azaspiro[4.5]decan-3-ylamino)-3-(3-(cyclopropylsulfonyl)phenoxy)propan-2-ol] | 17.9 nM |

The next lines start with the values.

| IC50 | Compound |
| --- | --- |
| 29.1 nM | COc1c(-c2ccc(CN)cc2)cccc1S(=O)(=O)N1CCC2(CC1)C[C@H](NC[C@H](O)COc1cccc(S(=O)(=O)C3CC3)c1)CO2 [Compound 228, (S)-1-((S)-8-(4′-(aminomethyl)-2-methoxybiphenyl-3-ylsulfonyl)-1-oxa-8-azaspiro[4.5]decan-3-ylamino)-3-(3-(cyclopropylsulfonyl)phenoxy)propan-2-ol] |
| 11.6 nM | COc1cc(-c2ccc(CN)cc2)cc(S(=O)(=O)N2CCC3(CC2)C[C@H](NC[C@H](O)COc2cccc(S(=O)(=O)C4CC4)c2)CO3)c1 [Compound 229, (S)-1-((S)-8-(4′-(aminomethyl)-5-methoxybiphenyl-3-ylsulfonyl)-1-oxa-8-azaspiro[4.5]decan-3-ylamino)-3-(3-(cyclopropylsulfonyl)phenoxy)propan-2-ol] |
| 15 nM | CCOc1ccc(-c2ccc(CN)cc2)cc1S(=O)(=O)N1CCC2(CC1)C[C@H](NC[C@H](O)COc1cccc(S(=O)(=O)COC)c1)CO2 [Compound 230, (S)-1-((S)-8-(4′-(aminomethyl)-4-ethoxybiphenyl-3-ylsulfonyl)-1-oxa-8-azaspiro[4.5]decan-3-ylamino)-3-(3-(methoxymethylsulfonyl)phenoxy)propan-2-ol] |
| 19.6 nM | CCOc1ccc(-c2ccc(CN)cc2)cc1S(=O)(=O)N1CCC2(CC1)C[C@H](NC[C@H](O)COc1cccc(S(C)(=O)=O)c1)CO2 [Compound 231, (S)-1-((S)-8-(4′-(aminomethyl)-4-ethoxybiphenyl-3-ylsulfonyl)-1-oxa-8-azaspiro[4.5]decan-3-ylamino)-3-(3-(methylsulfonyl)phenoxy)propan-2-ol] |
| 16.6 nM | CCOc1ccc(-c2ccc(CN)cc2)cc1S(=O)(=O)N1CCC2(CC1)C[C@H](NC[C@H](O)COc1cccc(S(=O)(=O)C(C)C)c1)CO2 [Compound 232, (S)-1-((S)-8-(4′-(aminomethyl)-4-ethoxybiphenyl-3-ylsulfonyl)-1-oxa-8-azaspiro[4.5]decan-3-ylamino)-3-(3-(isopropylsulfonyl)phenoxy)propan-2-ol] |
| 9.72 nM | CC(F)S(=O)(=O)c1cccc(OC[C@@H](O)CN[C@H]2COC3(CCN(S(=O)(=O)c4cnc5ccccc5c4)CC3)C2)c1 (stereo partly drawn) [Compound 233, (2S)-1-(3-(1-fluoroethylsulfonyl)phenoxy)-3-((R)-8-(quinolin-3-ylsulfonyl)-1-oxa-8-azaspiro[4.5]decan-3-ylamino)propan-2-ol] |
| 10.2 nM | CC(F)S(=O)(=O)c1cccc(OC[C@@H](O)CN[C@H]2COC3(CCN(S(=O)(=O)c4ccc5ncccc5c4)CC3)C2)c1 (stereo partly drawn) [Compound 234, (2S)-1-(3-(1-fluoroethylsulfonyl)phenoxy)-3-((R)-8-(quinolin-6-ylsulfonyl)-1-oxa-8-azaspiro[4.5]decan-3-ylamino)propan-2-ol] |
| 15 nM | CC(F)S(=O)(=O)c1cccc(OC[C@@H](O)CN[C@H]2COC3(CCN(S(=O)(=O)c4cnc5c(c4)N(C)CCO5)CC3)C2)c1 (stereo partly drawn) [Compound 235, (2S)-1-(3-(1-fluoroethylsulfonyl)phenoxy)-3-((R)-8-(1-methyl-2,3-dihydro-1H-pyrido[2,3-b][1,4]oxazin-7-ylsulfonyl)-1-oxa-8-azaspiro[4.5]decan-3-ylamino)propan-2-ol] |
